Experimental findings from patent US7294630B2, “Piperazinyl piperidine tachykinin antagonists” (SmithKline Beecham Corporation, priority 2000, dated 2007) are described below.

Structures can show the parent of a compound that is named as a salt.

For data set [1], the target named is T1, recombinant human NK1 receptors expressed in Chinese Hamster Ovary (CHO) cell membranes (Homo sapiens, UniProt P25103).
T1 construct: expressed in transfected cells; host or cells: Chinese Hamster Ovary (CHO) cells, membrane preparation
T1 sequence (P25103 whole entry): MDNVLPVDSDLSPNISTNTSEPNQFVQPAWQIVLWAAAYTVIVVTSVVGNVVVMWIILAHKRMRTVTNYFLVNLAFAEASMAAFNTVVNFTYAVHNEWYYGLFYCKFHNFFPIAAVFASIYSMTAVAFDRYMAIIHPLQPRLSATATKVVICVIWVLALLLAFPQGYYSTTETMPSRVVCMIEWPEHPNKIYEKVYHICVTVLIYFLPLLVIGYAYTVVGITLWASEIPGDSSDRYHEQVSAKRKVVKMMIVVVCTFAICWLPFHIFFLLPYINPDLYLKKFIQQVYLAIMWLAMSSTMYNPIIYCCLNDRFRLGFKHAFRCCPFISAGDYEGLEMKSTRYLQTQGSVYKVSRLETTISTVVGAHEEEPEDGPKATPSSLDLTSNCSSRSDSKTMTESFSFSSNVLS
In words: NK1-receptor binding affinity, displacement of [3H]-substance P. Particulars: average of at least two determinations, [3H]substance P displacement; for Ki: read-out: pki (negative logarithm of the inhibition constant Ki) (converted). As to the method:
CHO cell membranes were prepared by using a modification of the method described by Dam T and Quirion R (Peptides, 7:855-864, 1986). Thus ligand binding was performed in 0.4 ml of 50 mM HEPES, pH 7.4, containing 3 mM MnCl2, 0.02% BSA, 0.5 nM [^3H]Substance P (30÷56 Ci/mmol, Amersham), a final membrane concentration of 25 μg of protein/ml, and the test compounds. The incubation proceeded at room temperature for 40 min.
The affinity of the compound of the invention for NK1 receptor was determined using the NK1-receptor binding affinity method measuring in vitro by the compounds' ability to displace [3H]—substance P (SP) from recombinant human NK1 receptors expressed in Chinese Hamster Ovary (CHO) cell membranes. The affinity values are expressed as negative logarithm of the inhibition constant (Ki) of displacer ligands (pKi).

The target in data set [2] is T2, NK1 receptor (Meriones unguiculatus, UniProt Q5DUB1).
T2 construct: from tissue; host or cells: living gerbil, central nervous system (NK1 agonist infused into the cerebral ventricles)
T2 sequence (Q5DUB1 whole entry, the tested form may be a part): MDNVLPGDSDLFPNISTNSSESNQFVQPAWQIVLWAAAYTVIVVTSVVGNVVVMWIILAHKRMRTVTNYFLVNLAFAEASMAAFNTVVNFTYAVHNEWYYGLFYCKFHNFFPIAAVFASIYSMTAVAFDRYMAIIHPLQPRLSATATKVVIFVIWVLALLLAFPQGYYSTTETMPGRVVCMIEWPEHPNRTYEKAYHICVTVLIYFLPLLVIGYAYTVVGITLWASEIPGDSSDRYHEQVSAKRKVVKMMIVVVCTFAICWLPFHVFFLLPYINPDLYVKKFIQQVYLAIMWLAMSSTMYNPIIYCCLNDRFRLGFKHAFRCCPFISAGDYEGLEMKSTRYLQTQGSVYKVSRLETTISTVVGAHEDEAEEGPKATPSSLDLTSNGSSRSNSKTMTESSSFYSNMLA
Put plainly: gerbil foot tapping model (NK1 agonist icv). It is filed as in vivo. Particulars: read-out: ED50 (dose required to inhibit by 50% the tapping induced by the NK1 agonist), oral administration, four hours before NK1 agonist 3 pmol icv. The source says: The action of the compounds of the invention at the NK1 receptor may be determined by using conventional tests.
The ability of the compounds of the invention to penetrate the central nervous system and to bind at the nk1 receptor may be determined using the gerbill foot tapping model as described by Rupniak & Williams, Eur. Jour. of Pharmacol., 1994.
The compound was orally administered and four hours later an NK1 agonist (e.g. delta-Aminovaler^6[Pro^9,Me-Leu^10]-substance P (7-11)) (3 pmol in 5 μicv) was infused directly in the cerebral ventricules of the animals. The duration of hind foot tapping induced by the NK1 agonist (e.g. delta-Aminovalery^6[Pro^9,Me-Leu^10]-substance P (7-11)) was recorded continuously for 3 min using a stopclock. […] Alternatively the compounds may be administered subcutaneously or intraperitoneally.

Consider `CC(=O)N1CCN([C@H]2CCN(C(=O)N(C)[C@H](C)c3cc(C(F)(F)F)cc(C(F)(F)F)c3)[C@@H](c3ccc(F)cc3)C2)CC1` [Example 19, 4-(S)-(4-Acetyl-piperazin-1-yl)-2-(R)-(4-fluoro-phenyl)-piperidine-1-carboxylic acid, [1-(R)-(3,5-bis-trifluoromethyl-phenyl)-ethyl]-methylamide hydrochloride], for which the Ki (usually a measure of affinity in units of concentration, obtained from inhibition or displacement) in data set [1] was 0.417 nM.

With `CNC(=O)N1CCN([C@H]2CCN(C(=O)N(C)Cc3cc(C(F)(F)F)cc(C(F)(F)F)c3)[C@@H](c3ccc(F)cc3C)C2)CC1` [Example 16, 4-(S)-[1-[(3,5-Bis-trifluoromethyl-benzyl)-methyl-carbamoyl]-2-(R)-(4-fluoro-2-methyl-phenyl)-piperidin-4-yl]-1-carboxylic acid, methylamide hydrochloride], the Ki in data set [1] was 0.0437 nM.

As for `Cc1cc(F)ccc1[C@H]1CC(N2CCN(C)CC2)CCN1C(=O)N(C)Cc1cc(C(F)(F)F)cc(C(F)(F)F)c1.Cl.Cl` (mixture of isomers) [Example 10, 2-(R)-(4-Fluoro-2-methyl-phenyl)-4-(R,S)-(4-methyl-piperazin-1-yl)-piperidine-1-carboxylic acid, (3,5-bis-trifluoromethyl-benzyl)-methylamide dihydrochloride], the melting point – broadly, the temperature of the solid-liquid transition – was 208 to 209 °C. Besides, the Ki in data set [1] was 0.115 nM.

Consider “2-(R)-(4-Fluoro-2-methyl-phenyl)-4-(S)-piperazin-1-yl-piperidine-1-carboxylic acid, [1-(R)-(3,5-bis-trifluoromethyl-phenyl)-ethyl]-methylamide hydrochloride [Example 9]”, for which the “pki (negative logarithm of the inhibition constant Ki)” value in data set [1] came to 9.93.

For the molecule `CC(=O)N1CCN([C@@H]2CCN(C(=O)N(C)Cc3cc(C(F)(F)F)cc(C(F)(F)F)c3)[C@@H](c3ccc(F)cc3C)C2)CC1` [Example 7a, 4-(R)-(4-Acetyl-piperazin-1-yl)-2-(R)-(4-fluoro-2-methyl-phenyl)-piperidine-1-carboxylic acid, (3,5-bis-trifluoromethyl-benzyl)-methylamide hydrochloride], the Ki in data set [1] was 0.708 nM.

Regarding `Cc1cc(F)ccc1[C@H]1C[C@@H](N2CCN(C(=O)C(C)C)CC2)CCN1C(=O)N(C)[C@H](C)c1cc(C(F)(F)F)cc(C(F)(F)F)c1` [Example 14, 4-(S)-[4-(2-Methyl-propanoyl)-piperazin-1-yl]-2-(R)-(4-fluoro-2-methyl-phenyl)-piperidine-1-carboxylic acid, [1-(R)-(3,5-bis-trifluoromethyl-phenyl)-ethyl]-methylamide hydrochloride], the Ki in data set [1] was 0.1 nM.

As to `Cc1cc(F)ccc1[C@H]1C[C@@H](N2CCN(C(=O)N(C)C)CC2)CCN1C(=O)N(C)Cc1cc(C(F)(F)F)cc(C(F)(F)F)c1` [Example 15, 4-(S)-[1-[(3,5-Bis-trifluoromethyl-benzyl)-methyl-carbamoyl]-2-(R)-(4-fluoro-2-methyl-phenyl)-piperidin-4-yl]-piperazine-1-carboxylic acid, dimethylamide hydrochloride], the Ki in data set [1] is 0.0457 nM.

For `Cc1cc(F)ccc1[C@H]1CC(N2CCN(C)CC2)CCN1C(=O)N(C)[C@H](C)c1cc(C(F)(F)F)cc(C(F)(F)F)c1` (mixture of isomers) [Example 8, 2-(R)-(4-Fluoro-2-methyl-phenyl)-4-(R,S)-(4-methyl-piperazin-1-yl)-piperidine-1-carboxylic acid, [1-(R)-(3,5-bis-trifluoromethyl-phenyl)-ethyl]-methylamide hydrochloride], the Ki in data set [1] was 0.209 nM.

For `CC(=O)N1CCN([C@H]2CCN(C(=O)N(C)[C@H](C)c3cc(C(F)(F)F)cc(C(F)(F)F)c3)[C@@H](c3ccc(F)cc3C)C2)CC1.Cl` [Example 3, 4-(S)-(4-Acetyl-piperazin-1-yl)-2-(R)-(4-fluoro-2-methyl-phenyl)-piperidine-1-carboxylic acid, [1-(R)-(3,5-bis-trifluoromethyl-phenyl)-ethyl]-methylamide hydrochloride], the ED50 in data set [2] amounted to 0.05 mg/kg.

With `Cc1cc(F)ccc1[C@H]1C[C@@H](N2CCN(C(=O)C3CC3)CC2)CCN1C(=O)N(C)[C@H](C)c1cc(C(F)(F)F)cc(C(F)(F)F)c1.Cl` [Example 12, 4-(S)-(4-Cyclopropanoyl-piperazin-1-yl)-2-(R)-(4-fluoro-2-methyl-phenyl)-piperidine-1-carboxylic acid, [1-(R)-(3,5-bis-trifluoromethyl-phenyl)-ethyl]-methylamide hydrochloride], the Ki in data set [1] is 0.123 nM. For the same molecule, the ED50 in data set [2] turned out to be 0.27 mg/kg.

With `CC(=O)N1CCN([C@H]2CCN(C(=O)N(C)Cc3cc(C(F)(F)F)cc(C(F)(F)F)c3)[C@@H](c3ccc(F)cc3C)C2)CC1.Cl` [Example 7b, 4-(S)-(4-Acetyl-piperazin-1-yl)-2-(R)-(4-fluoro-2-methyl-phenyl)-piperidine-1-carboxylic acid, (3,5-bis-trifluoromethyl-benzyl)-methylamide hydrochloride], the Ki in data set [1] is 0.0741 nM. Further, the ED50 in data set [2] stood at 0.19 mg/kg.
